US7105656B2, “Compositions and methods for treating hematologic malignancies and multiple drug resistance” (The Brigham and Women's Hospital, Inc., priority 2000, dated 2006)

B1: IFN-γ: proinflammatory cytokine (protein, UniProt P01579 24-161, looked up)
Interferon gamma: QDPYVKEAENLKKYFNAGHSDVADNGTLFLGILKNWKEESDRKIMQSQIVSFYFKLFKNFKDDQSIQKSVETIKEDMNVKFFNSNKKKRDDFEKLTNYSVTDLNVQRKAIHELIQVMAELSPAAKTGKRKRSQMLFRG

Key:
[1] = test system: KB cells; assay: Multicellular spheroid model, doxorubicin toxicity by BCECF labeling; assay type: cell-based; conditions: doxorubicin 1 μM
Description: Multicellular spheroid model: A multicellular spheroid model was developed using KB cells grown at high density of membrane permeable supports. Briefly, KB cells in suspension were plated at high density (˜10^7 cells/cm^2) on 0.33 cm^2 collagen-coated permeable supports (Corning-Costar, Cambridge, Ma.) and allowed to grow as domes on these substrates for two weeks. Media was replaced every other day and at two weeks, multicellular spheroids were subjected to a 24 or 48 hr period of hypoxia or normoxia, in the presence or absence of the P-glycoprotein substrate doxorubicin (1 μM final concentration) (Sigma, St Louis, Mo.). At the termination of the experiment, the number of viable, intact cells was determined by measurement of the amount of esterase cleavable fluorescent marker 2′7′-bis(carboxyethyl)-5(6)-carboxyfluorescein pentaacetoxymethyl ester (BCECF-AM, 5 μM final concentration Calbiochem, San Diego, Calif.) retained over a 30 min period, a sensitive measurement cytoxicity) (Wierda et al., J. Immunol. […] Multicellular spheroids were washed three times in HBSS and fluorescence intensity was measured on a fluorescent plate reader. […]

[2] = target: T1, SUMO-1 (Homo sapiens, UniProt P63165); assay: sumo-1 antisense oligonucleotides, induction of HIF-1 in hypoxia; assay type: cell-based
T1 construct: endogenous in cells
T1 sequence (P63165 1-97 limits assumed): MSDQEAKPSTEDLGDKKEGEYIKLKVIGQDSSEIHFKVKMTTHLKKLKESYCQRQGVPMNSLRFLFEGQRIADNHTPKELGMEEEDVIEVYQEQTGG
Excerpt: Posttranslational SUMOlation influences HIF-1α regulated gene expression. In order to test that HIF-1 is SUMO-1 modified, we conducted experiments which indicated an association of HIF-1α both with endogenous as well as epitope (hexahistidine)-tagged SUMO-1 HIF-1α induction was rapid and was detected by immunopecipitating SUMO-1. To further investigate the impact of SUMOlation on HIF-1 conveyed gene expression, we designed antisense oligonucleotides AS31(SEQ ID NO: 22), AS64 (SEQ ID NO: 23), and AS617 (SEQ ID NO: 24) directed against SUMO-1. […] Thus, we were able to modify the HIF-1 conveyed hypoxia adaptive response by administration of sumo-1 antisense oligonucleotides.

[3] = test system: mdr1 gene; assay: Genechip expression array screen of epithelial cells for mdr1 induction; assay type: cell-based, human; conditions: T84 epithelial cells, exposure similar to hypoxia (6 and 18 hrs)
Description: Analysis of messenger RNA levels by RT-PCR: The transcriptional profile of epithelial cells exposed to ambient hypoxia was assessed in RNA derived from control or hypoxic epithelia (T84 cells at 6 or 18 hr hypoxia) using quantitative genechip expression arrays (Affymetrix, Inc., Santa Clara, Calif.) (Lockhart et al., Nat. Biotechnol., 14, 1675–1680, 1996). RT-PCR analysis of mRNA levels was performed using DNAse treated total RNA as previously described (Taylor et al., J. Biol. Chem., 274, 19447–19450, 1999) using primers specific for mdr1 (forward primer 5′-AACGGAAGCCAGAACATTCC-3′ (SEQ ID NO: 37) and reverse primer 5′-AGGCTTCCTGTGGCAAAGAG-3′ (SEQ ID NO: 38), 180 bp fragment), HIF-1α (forward primer 5′- CTCAAAGTCGGACAGCCTCA-3′ (SEQ ID NO: 39) and reverse primer 5′-CCCTGCAGTAGGTTTCTGCT -3′ (SEQ ID NO: 40), 460 bp fragment) or control β-actin (forward primer 5′-ATGACTTCCAAGCTGGCCGTGGCT-3′ (SEQ ID NO: 41) and antisense primer 5′-TCTCAGCCCTCTTCAAAAACTTCTC-3′ (SEQ ID NO: 42), 661 bp fragment). Each primer set was amplified using 25 cycles, unless otherwise noted, of 94° C. for 1 min, 60° C. for 2 min, 72° C. for 4 min, and a final extension of […] for 7 min. The PCR reactions were then visualized on a 1.5% agarose gel containing 5 μg/ml of ethidium bromide. […]

Molecule	induction of HIF-1 in hypoxia [2]	further results
COc1cccc2c1C(=O)c1c(O)c3c(c(O)c1C2=O)C[C@@](O)(C(=O)CO)C[C@@H]3O[C@H]1C[C@H](N)[C@H](O)[C@H](C)O1 [doxorubicin]	–	degree of cell death (number of intact cells, BCECF labeling) ([1]; 24 hr hypoxia vs normoxia, p<0.01): significantly decreased; degree of cell death (number of intact cells, BCECF labeling) ([1]; 48 hr hypoxia vs normoxia, p<0.001): significantly decreased
AS31: antisense oligonucleotide directed against SUMO-1 (antisense CACAGCAGCGGCCTCGGGTA; chemistry not given here)	able to modify the induction of HIF-1 in hypoxia	–
AS64: antisense oligonucleotide directed against SUMO-1 (antisense CATGATGACGGTGGCTTCAC; listed as DNA, chemistry not given here)	able to modify the induction of HIF-1 in hypoxia	–
AS617: antisense oligonucleotide directed against SUMO-1 (antisense GTGACCTCTCTGTGCACACG; listed as DNA, chemistry not given here)	able to modify the induction of HIF-1 in hypoxia	–
B1	–	induction of mdr1 [3]: did not induce mdr1
